Laboratory results: patent US7307090B2, “Piperidine derivatives useful as modulators of chemokine receptor activity” (AstraZeneca AB, priority 2001, dated 2007)

Row | SMILES | melting point
1 | Cc1c(Cl)ccc(OC2CCN(C3CCN(S(=O)(=O)NC(=O)c4ccccc4)CC3)CC2)c1Cl [Example 5A, N-Benzoyl-4-(2,4-dichloro-3-methylphenoxy)-[1,4′-bipiperidine)-1′-sulfonamide] | 223 °C
2 | Cc1ccc(S(=O)(=O)NS(=O)(=O)N2CCC(N3CCC(Oc4ccc(Cl)c(Cl)c4)CC3)CC2)cc1.[Na] | 242 to 243 °C
3 | O=C(NC(=O)N1CCC(N2CCC(Oc3ccc(Cl)c(Cl)c3)CC2)CC1)c1ccccc1 [Example 7A, N-Benzoyl-4-(3,4-dichlorophenoxy)-[1,4′-bipiperidine]-1′-carboxamide] | 65 to 80 °C

Further lines, results first:

Row | melting point | SMILES
4 | 200 °C | O=C(NS(=O)(=O)N1CCC(N2CCC(Oc3ccc(Cl)c(Cl)c3)CC2)CC1)c1c[nH]c(=O)c2ccccc12 [Example 11A, 4-(3,4-Dichlorophenoxy)-N-[(1,2-dihydro-1-oxo-4-isoquinolinyl)carbonyl]-[1,4′-bipiperidine]-1′-sulfonamide]
5 | 166 to 167 °C | O=C(NS(=O)(=O)N1CCC(N2CCC(Oc3ccc(Cl)c(Cl)c3)CC2)CC1)c1ccc(Cl)c(Cl)c1 [Example 8A, N-(3,4-Dichlorobenzoyl)-4-(3,4-dichlorophenoxy)-(1,4′-bipiperidine]-1′-sulfonamide]
